Data published in patent publication US20110237606A1, “3-Deazaneplanocin Derivatives” (AGENCY OF SCIENCE, TECHNOLOGY AND RESEARCH, priority 2008, published 2011).
Structures can show the parent of a compound that is named as a salt.

Assays:
HCT115 ER-E2F1 cells = assay: E2F1-induced apoptosis assay (ER-E2F1 activated by 4-OHT), FACS subG1; assay type: cell-based; conditions: for E2F1 Induced apoptosis % Apoptosis: without 4-OHT (value before the parentheses), 'No activity'; for E2F1 Induced apoptosis (+4-OHT) % Apoptosis: with 4-OHT (value in parentheses)
From the text: Two assays were used to measure the compound's activity in induce apoptosis. The first assay measures the activity of compound to activate E2F1-induced apoptosis. In this assay, transcription factor E2F1 was engineered with ER receptor ligand binding domain. Addition of 4-OHT will be able to activate ER-E2F1 complex activity.
Fluorescence activated cell sorting (FACS) also known as flow cytometry is the technique used to determine apoptosis in this set of experiments. Apoptosis is indicated by cell populations with DNA content in the subG1 range. To determine the activity of these compounds, the inventors used HCT115 ER-E2F1 cells to determine the activity of the compound in inducing E2F1-dependent apoptosis. In this assay, addition of 4-OHT ligand will activate E2F1. DZNep has been show previously to activate OHT-induced apoptosis in this system.

colon cancer cells = assay: Apoptosis induction in combination with histone deacetylase inhibitor TSA; assay type: cell-based; conditions: 48 h
From the text: The compound may show activity to activate E2F1-induced apoptosis of at least about 15%, or at least about 20 or 25%, or about 15 to 25%, 15 to 30%, 15 to 20% or 20 to 25%. In this context, transcription factor E2F1, which is involved in the action of tumour suppressing proteins, was engineered with ER receptor ligand binding domain. (ER receptor is a nuclear hormone type of intracellular oestrogen receptor.) The compound may show activity to activate E2F1-induced apoptosis in the presence of 4-OHT of at least about 25% or of at least about 30, 40, 50, 60, 70 or 80%, or of about 25 to about 80%, or about 30 to 80, 50 to 80, 60 to 80 or 50 to 70%, e.g. about 25, 30, 35, 40, 45, 50, 55, 60, 65, 70, 75, 80 or 85%. 4-OHT is 4-hydroxytamoxifen, an anti-estrogenic metabolite of tamoxifen with a much higher affinity for oestrogen receptors than tamoxifen itself. The compound may show apoptosis induction in colon cancer cells with histone deacetylase inhibitor TSA (Trichostatin A) of at least about 40%, or at least about 50, 60, 70 or 80%, or about 40 to about 90%, or about 50 to 90, 70 to 90, 40 to 60 or 50 to 80%, e.g. about 40, 50, 60, 70, 80 or 90%. It may be capable of inhibiting the function of Polycomb repressive complex 2 (PRC2) proteins. In this context, activity % refers to the percentage of cell undergoing apoptosis (death) under the combination drug treatment of DZNep analogue with TSA for 48 h.
The second assay was designed to measure synergistic effect of new compounds with histone deacetylase inhibitor TSA for apoptosis induction in colon cancer cells. DZNep is known to synergy with TSA to induce strong apoptosis in colon cancer cells ((Jiang et al., Cancer Cell, 13, 529-541, 2008). Again the new compounds are compared with DZNep in the context of inducing apoptosis with TSA. Assays were conducted in accordance with Jiang et al (above).

Compound	E2F1 Induced apoptosis % Apoptosis (HCT115 ER-E2F1 cells)	Combination with HDAC inhibitor TSA % Apoptosis (colon cancer cells)	E2F1 Induced apoptosis (+4-OHT) % Apoptosis (HCT115 ER-E2F1 cells)
Nc1ncnc2c1ncn2C1C=CCC1 (racemic) [Compound 29, (±)-9-(cyclopent-2-enyl)-9H-purin-6-amine]	No activity	No activity	
CC1(C)O[C@H]2[C@H](n3cnc4c(N)ncnc43)CC[C@H]2O1 (racemic) [Compound 30, (±)-9-(2,2-dimethyl-tetrahydro-3aH-cyclopenta[d][1,3]dioxol-4-yl)-9H-purin-6-amine]	No activity	No activity	
CC1(C)O[C@H]2[C@H](CC[C@H]2n2cnc3c(N)ncnc32)O1 (racemic) [Compound 31, (±)-9-(2,2-dimethyl-tetrahydro-3aH-cyclopenta[d][1,3]dioxol-4-yl)-9H-purin-6-amine]	No activity	No activity	
Nc1ncnc2c1ncn2[C@@H]1CC[C@@H](O)[C@H]1O (racemic) [Compound 32, (±)-(1R,2S,3R)-3-(6-Amino-9H-purin-9-yl)-1,2-cyclopentanediol hydrochloride]			44%
Nc1ncnc2c1ncn2[C@@H]1CC[C@H](O)[C@@H]1O (racemic) [Compound 33, (±)-(1R,2S,3S)-3-(6-Amino-9H-purin-9-yl)-1,2-cyclopentanediol hydrochloride]	No activity	No activity	
CC1(C)O[C@@H]2[C@H](O1)C(COC(c1ccccc1)(c1ccccc1)c1ccccc1)=C[C@H]2n1cnc2c(Cl)nccc21 [Compound 1]	No activity		
CC1(C)O[C@@H]2[C@H](O1)C(COC(c1ccccc1)(c1ccccc1)c1ccccc1)=C[C@H]2n1cnc2cncc(Cl)c21 [Compound 2]	No activity		
OCC1=C[C@@H](n2cnc3c(Cl)nccc32)[C@H](O)[C@@H]1O [Compound 3]	No activity	No activity	
OCC1=C[C@@H](n2cnc3ccnc(Cl)c32)[C@H](O)[C@@H]1O [Compound 4]	No activity	No activity	
COC(=O)c1cn([C@@H]2C=C(CO)[C@@H](O)[C@H]2O)nn1 [Compound 5]	No activity	No activity	
COC(=O)c1cn([C@@H]2C=C(CO)[C@@H](O)[C@H]2O)cn1 [Compound 6]	No activity	No activity	
COC(=O)c1ncn([C@@H]2C=C(CO)[C@@H](O)[C@H]2O)n1 [Compound 7]	No activity	No activity	
O=C(c1ccccc1)n1c(=O)ccn([C@@H]2C=C(CO)[C@@H](O)[C@H]2O)c1=O [Compound 8]	No activity	No activity	
Cc1cn([C@@H]2C=C(CO)[C@@H](O)[C@H]2O)c(=O)n(C(=O)c2ccccc2)c1=O [Compound 9]	No activity	No activity	
Cc1cn([C@@H]2C=C(CO)[C@@H](O)[C@H]2O)c(=O)[nH]c1=O [Compound 10]	No activity	No activity	
O=c1[nH]cnc2c1ncn2[C@@H]1C=C(CO)[C@@H](O)[C@H]1O [Compound 11]	No activity	No activity	

Compound	E2F1 Induced apoptosis % Apoptosis (HCT115 ER-E2F1 cells)	Combination with HDAC inhibitor TSA % Apoptosis (colon cancer cells)	E2F1 Induced apoptosis (+4-OHT) % Apoptosis (HCT115 ER-E2F1 cells)
O=c1ccn([C@@H]2C=C(CO)[C@@H](O)[C@H]2O)c(=O)[nH]1 [Compound 12]	No activity	No activity	
NC(=O)c1ncn([C@@H]2C=C(CO)[C@@H](O)[C@H]2O)n1 [Compound 13]	No activity	No activity	
NC(=O)c1cn([C@@H]2C=C(CO)[C@@H](O)[C@H]2O)cn1 [Compound 14]	No activity	No activity	
CC1(C)O[C@@H]2[C@H](O1)C(COC(c1ccccc1)(c1ccccc1)c1ccccc1)=C[C@@H]2O [Compound 15]	No activity	No activity	
CC1(C)O[C@@H]2[C@H](O1)C(COC(c1ccccc1)(c1ccccc1)c1ccccc1)=C[C@H]2n1cnc2c(N)ncnc21 [Compound 16]	No activity	No activity	
COC(=O)c1cn([C@@H]2C=C(COC(c3ccccc3)(c3ccccc3)c3ccccc3)[C@H]3OC(C)(C)O[C@H]32)cn1 [Compound 17]	No activity	No activity	
Cc1cn([C@@H]2C=C(COC(c3ccccc3)(c3ccccc3)c3ccccc3)[C@H]3OC(C)(C)O[C@H]32)c(=O)n(C(=O)c2ccccc2)c1=O [Compound 18]	No activity	No activity	
CC1(C)O[C@@H]2[C@H](O1)C(COC(c1ccccc1)(c1ccccc1)c1ccccc1)=C[C@H]2n1ccc(=O)n(C(=O)c2ccccc2)c1=O [Compound 19]	No activity	No activity	
CC1(C)O[C@@H]2[C@H](O1)C(COC(c1ccccc1)(c1ccccc1)c1ccccc1)=C[C@H]2n1cnc2c(Cl)ncnc21 [Compound 20]	No activity	No activity	
Nc1nccc2c1ncn2[C@@H]1C=C(CO)[C@@H](O)[C@H]1O [Compound 22, 3-Deazaneplanocin A, reference compound]			65%
CC1(C)O[C@@H]2[C@H](O1)C(CO)=C[C@H]2n1cnc2c(N)nccc21 [Compound 23, 2′,3′-O-Isopropylidene-3-deazaneplanocin A]		No activity	25%
Cl.Nc1nccc2c1ncn2[C@@H]1C[C@H](CO)[C@@H](O)[C@H]1O [Compound 24, 3-Deazaaristeromycin hydrochloride]	28%	70%	60%
CC1=C[C@@H](n2cnc3c(N)ncnc32)[C@H](O)[C@@H]1O [Compound 26, (1S,2R,5R)-5-(6-amino-9H-purin-9-yl)-3-methylcyclopent-3-ene-1,2-diol hydrochloride]			40%
Nc1ncnc2c1ncn2[C@@H]1C=C(COC(=O)c2ccccc2)[C@@H](O)[C@H]1O [Compound 27, ((3R,4S,5R)-3-(6-amino-9H-purin-9-yl)-4,5-dihydroxycyclopent-1-enyl)methyl benzoate hydrochloride]			30%
CC1(C)O[C@@H]2[C@H](O1)C(CO)=C[C@H]2n1cnc2c(N)ncnc21 [Compound 28]	No activity	No activity	
